# Entries after “also recorded” stand apart in the source; their conditions may differ.
# Assays:
# AbeF = details: read-out: KD, flavin binding to AbeF; cited from earlier work
# AbeH/Trp = AbeH/Trp (uncultured bacterium, UniProt F6LWA5); assay: FAD fluorescence quenching titration with AbeH preincubated with Trp; type: binding, uncultured soil actinomycetes
# Experimental: Quenching of FAD fluorescence quenching upon binding to AbeH was measured in the absence and presence of Trp in 20 mM Tris-HCl pH 8.0 and 100 mM NaCl using a Quantmaster 40 fluorimeter (Photon Technologies International). Trp and FAD solutions were prepared in 20 mM Tris-HCl pH 8, and concentrations were determined by absorbance at 280 and 450 nm, respectively. FAD fluorescence was measured using excitation at 450 nm (4 nm slit opening) and emission set at 525 nm (6 nm slit opening) using a fluorescence cuvette to collect 50 scans, which were averaged later during data processing in Microsoft Excel. […] Raw fluorescence intensities were corrected for the buffer, Trp, and AbeH background contributions. Quenched fluorescence intensity was plotted vs AbeH concentration and fit to eq 1 using GraphPad Prism 8.0 by nonlinear regression analysis. In eq 1, F = fractional saturation, ΔF = fluorescence quenching upon AbeH/FAD complex formation (calculated from the difference of FAD fluorescence intensity at different AbeH concentration), ΔFmax = maximum fluorescence change obtained from fit, [AbeHFAD] = FAD-bound AbeH, [AbeH]T = Total AbeH concentration, [FAD]T = Total FAD concentration, KD = equilibrium dissociation constant. […]
# A. Fluorescence quenching observed from binding of Apo-AbeH ([…]) to […] FAD; […]
# AbeH = AbeH (uncultured bacterium, UniProt F6LWA5); assay: Time-course of in vitro Trp chlorination and bromination by AbeH; type: biochemical, uncultured soil actinomycetes
# Experimental: Time-course experiments were done using 1.7 μM AbeH, 3.3 μM holo-AbeF, 500 μM Trp, 2.5 mM NADH in 10 mM Na/KPO4 pH 8.2 with either 50 mM NaCl or 100 mM NaBr. Reactions were incubated for 5 min at 37 °C and NADH was added to start the reactions. Aliquots of 100 μL were quenched and analyzed by RP-HPLC at various time points. Unreacted substrate and product concentrations were calculated using peak areas and standard curves of Trp, 5-Cl-Trp, and 5-Br-Trp.
# Figure S4: Time-course of in vitro Trp chlorination and bromination by AbeH.
# Reaction conditions: 1.7 µM AbeH, 3.3 µM holo-AbeF, 0.5 mM Trp, 2.5 mM NADH, 10 mM Na/KPO4 pH 8.2, and either 50 mM NaCl (A) or 100 mM NaBr (B). Concentration of product formed was calculated from RP-HPLC chromatogram integrated A280 peak areas compared to standard curves of integrated peak areas of known concentrations of 5-Cl-Trp and 5-Br-Trp standards. Experiments were carried out in duplicate. (A) Time course of Trp chlorination by AbeH has chlorination specific activity of 87 µmol min-1 mg-1. (B) Time course of Trp bromination by AbeH has bromination specific activity of 34 µmol min-1 mg-1.
# (1 picture or pasted object on this page, not shown here)
# BorH/FAD = assay: Isothermal titration calorimetry, Trp into BorH preincubated with FAD; type: binding, uncultured soil actinomycetes
# Experimental: ITC experiments were performed using a VP-ITC isothermal titration calorimeter (MicroCal) in 20 mM HEPES pH 7.5, 350 mM NaCl, 1 mM ethylenediamine tetraacetic acid (EDTA) and 15% (v/v) glycerol. Solutions of AbeH, BorH, FAD (Chem-Implex), and Trp (Acros Organics) were prepared in the same buffer and degassed under vacuum at 30 °C for 20 min before loading in the syringe or cell. To analyze formation of binary complexes, AbeH or BorH was placed inside the cell, and ligand (FAD or Trp) was injected. For ternary complex titration, one ligand was preincubated with the macromolecule for 30 min at 30 °C to form binary complexes of AbeH/FAD, AbeH/Trp, BorH/FAD, and BorH/Trp before titrating with the second ligand. […] Formation of FADH2 by sodium dithionite was verified using absorbance and fluorescence spectrophotometry.
# ITC experiments were performed with reference power set to 10 μcal/s and Milli-Q water in the reference cell. […] Heats of dilution for all titrants were measured by titrating ligand into buffer for binary complex titrations, and by titrating ligand into a solution containing the other ligand but no protein for ternary complex titration. […]
# Titrations were analyzed by manually integrating each injection, subtracting the heat of dilution, and carrying out nonlinear least-squares fit of the calorimetric binding data to a one-site model using Origin 7.0 (Origin Lab). […]
# Sequence of AbeH (F6LWA5 entry or part of it): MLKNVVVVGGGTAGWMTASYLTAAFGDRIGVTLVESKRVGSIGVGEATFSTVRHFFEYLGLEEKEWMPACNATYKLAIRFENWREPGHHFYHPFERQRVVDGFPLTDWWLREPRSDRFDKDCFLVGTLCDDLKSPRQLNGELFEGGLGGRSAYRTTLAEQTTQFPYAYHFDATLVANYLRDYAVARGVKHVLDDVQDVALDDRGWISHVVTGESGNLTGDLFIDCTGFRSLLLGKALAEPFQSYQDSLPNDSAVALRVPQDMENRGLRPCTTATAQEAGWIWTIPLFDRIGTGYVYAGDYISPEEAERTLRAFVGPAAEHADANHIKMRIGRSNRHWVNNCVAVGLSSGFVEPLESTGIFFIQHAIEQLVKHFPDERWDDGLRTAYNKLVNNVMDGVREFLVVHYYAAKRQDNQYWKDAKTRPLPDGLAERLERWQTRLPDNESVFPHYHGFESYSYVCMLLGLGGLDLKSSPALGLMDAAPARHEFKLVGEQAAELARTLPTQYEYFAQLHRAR
# Sequence of AbeH/Trp (F6LWA5 entry or part of it): as above
smiles,measurement,setting,value
Cc1cc2nc3c(=O)[nH]c(=O)nc-3n(C[C@H](O)[C@H](O)[C@H](O)COP(=O)(O)OP(=O)(O)OC[C@H]3O[C@@H](n4cnc5c(N)ncnc54)[C@H](O)[C@@H]3O)c2cc1C [FAD],Kd,AbeF,0.8 µM
same,Kd,"AbeH/Trp; AbeH/FAD KD, FAD fluorescence quenching (Figure S10 B), in the presence of 0.3 mM Trp",3.1 µM
same,Kd,"AbeH/Trp; KD, FAD binding to AbeH/Trp, FAD fluorescence, AbeH preincubated with Trp",7.7 ± 2.2 µM
"N[C@@H](Cc1c[nH]c2ccccc12)C(=O)O [Tryptophan, L-tryptophan]",Specific activity of AbeH for Trp chlorination relative to Trp bromination,AbeH,approximately 2.5 ×
same,Specific activity of AbeH for chlorination of Trp,"AbeH; 1.7 μM AbeH, 500 μM Trp, 50 mM NaCl, 37 °C",87 μM min^–1 mg^–1
same,Specific activity of AbeH for bromination of Trp,"AbeH; 1.7 μM AbeH, 500 μM Trp, 100 mM NaBr, 37 °C",34 μM min^–1 mg^–1
same,AbeH chlorination specific activity,"AbeH; Figure S4 A, 0.5 mM Trp, 50 mM NaCl",87 µmol/min/mg
same,AbeH bromination specific activity,"AbeH; Figure S4 B, 0.5 mM Trp, 100 mM NaBr",34 µmol/min/mg
same,"Binding of Trp to preincubated BorH/FAD by ITC, in words","BorH/FAD; 21 mM Trp into 8 μM BorH preincubated with 5 mM FAD, listed as Trp",No binding was observed; also recorded: no evidence of Trp binding
same,"KD, Trp binding to BorH/FAD, ITC",BorH/FAD; BorH preincubated with FAD,no binding

# — publication PMC11840605, “Crystallographic and Thermodynamic Evidence of Negative Coupling in the Flavin-Dependent Tryptophan Halogenases AbeH and BorH” (ACS Omega, 2025)
